The source of these data is patent publication US8133849B2, “Herbicidal compounds” (Syngenta Limited, priority 2007, dated 2012).

Assay [1] relates to Alopecurus myosuroides. Briefly: Example B3 herbicidal action, post-emergence, small pots in glasshouse, damage score 0-10. To be noted: 1000 g/ha, evaluated after 13 days, 10=total damage to plant, 0=no damage to plant. It counts as in vivo. The method, then:
(§1) Seeds of a variety of test species were sown in sterilized compost in small pots. After cultivation for seven days (post-emergence) in controlled conditions in the glasshouse (at 24/16° C., day/night; 14 hours light; 65% humidity) the plants were sprayed with 1 mg of the active ingredient, formulated in 2.5 ml acetone/water (50:50) solution, which is equivalent to 1000 g/ha. Once the foliage was dry, the pots were kept in the glasshouse (at 24/16° C., day/night; 14 hours light; 65% humidity), and were watered twice daily. After 13 days the test was evaluated (10=total damage to plant, 0=no damage to plant).

Assay [2] concerns Chenopodium album. The assay is described as above. Type of assay: in vivo. To be noted: 1000 g/ha, evaluated after 13 days, 10=total damage to plant, 0=no damage to plant. The method, then:
as §1

The structures appear in SMILES notation.

Take `CC(C)(C)C(=O)OC1=C(c2ccc(Cl)cc2Cl)S(=O)(=O)N(CC(F)F)c2nccnc21` [Compound C12, 2,2-dimethyl-propionic acid-3-(2,4-dichloro-phenyl)-1-(2,2-difluoroethyl)-2,2-dioxo-1,2-dihydro-2-λ-6-thia-1,5,8-triaza-naphthalen-4-yl ester]: the “damage to plant, ALOMY” value in assay [1] was determined as 6. Besides, the “damage to plant, CHEAL” value in assay [2] is 9.
